Legend:
Bacteroides fragilis = assay: Expected efficacy of antibiotic agents; conditions: expected efficacy against Bacteroides fragilis
Clostridium difficile = assay: Expected efficacy of antibiotic agents; conditions: expected efficacy against Clostridium difficile
Clostridium perfringens = conditions: expected efficacy against Clostridium perfringens
Chlamydia pneumoniae = assay: Expected efficacy of antibiotic agents; conditions: expected efficacy against Chlamydia pneumoniae
Chlamydia psittaci = conditions: expected efficacy against Chlamydia psittaci
Chlamydia trachomatis = assay: Expected efficacy of antibiotic agents; conditions: expected efficacy against Chlamydia trachomatis
Mycoplasma pneumoniae = assay: Expected efficacy of antibiotic agents; conditions: expected efficacy against Mycoplasma pneumoniae
Acinetobacter baumannii = assay: Expected efficacy of antibiotic agents; conditions: expected efficacy against Acinetobacter baumannii
[1] = system: Acinetobacter calcoaceticus; assay: Expected efficacy of antibiotic agents; conditions: expected efficacy against Acinetobacter calcoaceticus
Acinetobacter lwoffii = assay: Expected efficacy of antibiotic agents; conditions: expected efficacy against Acinetobacter lwoffii
Bordetella pertussis = assay: Expected efficacy of antibiotic agents; conditions: expected efficacy against Bordetella pertussis
Campylobacter jejuni = assay: Expected efficacy of antibiotic agents; conditions: expected efficacy against Campylobacter jejuni
Citrobacter diversus = assay: Expected efficacy of antibiotic agents; conditions: expected efficacy against Citrobacter diversus
Citrobacter freundii = assay: Expected efficacy of antibiotic agents; conditions: expected efficacy against Citrobacter freundii
Enterobacter aerogenes = assay: Expected efficacy of antibiotic agents; conditions: expected efficacy against Enterobacter aerogenes
Enterobacter cloacae = assay: Expected efficacy of antibiotic agents; conditions: expected efficacy against Enterobacter cloacae
Enterobacter sakazakii = assay: Expected efficacy of antibiotic agents; conditions: expected efficacy against Enterobacter sakazakii
Escherichia coli = assay: Expected efficacy of antibiotic agents; conditions: expected efficacy against Escherichia coli
Francisella tularensis = conditions: expected efficacy against Francisella tularensis
Haemophilus ducreyi = assay: Expected efficacy of antibiotic agents; conditions: expected efficacy against Haemophilus ducreyi
Haemophilus influenzae = assay: Expected efficacy of antibiotic agents; conditions: expected efficacy against Haemophilus influenzae
[2] = system: Haemophilus parainfluenzae; assay: Expected efficacy of antibiotic agents; conditions: expected efficacy against Haemophilus parainfluenzae
[3] = system: Klebsiella (Calymmatobacterium) granulomatis; assay: Expected efficacy of antibiotic agents; conditions: expected efficacy against Klebsiella (Calymmatobacterium) granulomatis
Klebsiella oxytoca = assay: Expected efficacy of antibiotic agents; conditions: expected efficacy against Klebsiella oxytoca
Klebsiella pneumoniae = assay: Expected efficacy of antibiotic agents; conditions: expected efficacy against Klebsiella pneumoniae
Legionella pneumophila = conditions: expected efficacy against Legionella pneumophila
Moraxella catarrhalis = assay: Expected efficacy of antibiotic agents; conditions: expected efficacy against Moraxella catarrhalis
Morganella morganii = assay: Expected efficacy of antibiotic agents; conditions: expected efficacy against Morganella morganii
Neisseria gonorrhoeae = assay: Expected efficacy of antibiotic agents; conditions: expected efficacy against Neisseria gonorrhoeae
Neisseria meningitidis = assay: Expected efficacy of antibiotic agents; conditions: expected efficacy against Neisseria meningitidis
Proteus mirabilis = assay: Expected efficacy of antibiotic agents; conditions: expected efficacy against Proteus mirabilis
Proteus vulgaris = assay: Expected efficacy of antibiotic agents; conditions: expected efficacy against Proteus vulgaris
Providencia rettgeri = assay: Expected efficacy of antibiotic agents; conditions: expected efficacy against Providencia rettgeri
Providencia stuartii = assay: Expected efficacy of antibiotic agents; conditions: expected efficacy against Providencia stuartii
Pseudomonas aeruginosa = assay: Expected efficacy of antibiotic agents; conditions: expected efficacy against Pseudomonas aeruginosa
Rickettsiae = conditions: expected efficacy against Rickettsiae
Salmonella typhi = assay: Expected efficacy of antibiotic agents; conditions: expected efficacy against Salmonella typhi
Serratia marcescens = assay: Expected efficacy of antibiotic agents; conditions: expected efficacy against Serratia marcescens
Shigella boydii = assay: Expected efficacy of antibiotic agents; conditions: expected efficacy against Shigella boydii
Shigella dysenteriae = assay: Expected efficacy of antibiotic agents; conditions: expected efficacy against Shigella dysenteriae
Shigella flexneri = assay: Expected efficacy of antibiotic agents; conditions: expected efficacy against Shigella flexneri
Shigella sonnei = assay: Expected efficacy of antibiotic agents; conditions: expected efficacy against Shigella sonnei
Vibrio cholerae = assay: Expected efficacy of antibiotic agents; conditions: expected efficacy against Vibrio cholerae
Yersinia pestis = conditions: expected efficacy against Yersinia pestis
Corynebacterium jeikeium = assay: Expected efficacy of antibiotic agents; conditions: expected efficacy against Corynebacterium jeikeium
[4] = system: Corynebacterium urealyticum; assay: Expected efficacy of antibiotic agents; conditions: expected efficacy against Corynebacterium urealyticum
Diphtheroids = assay: Expected efficacy of antibiotic agents; conditions: expected efficacy against Diphtheroids
Enterococcus faecalis = assay: Expected efficacy of antibiotic agents; conditions: expected efficacy against Enterococcus faecalis
Enterococcus faecium = assay: Expected efficacy of antibiotic agents; conditions: expected efficacy against Enterococcus faecium
[5] = system: Methicillin resistant staph aureus (MRSA); assay: Expected efficacy of antibiotic agents; conditions: expected efficacy against Methicillin resistant staph aureus (MRSA)
Peptostreptococcus = assay: Expected efficacy of antibiotic agents; conditions: expected efficacy against Peptostreptococcus
[6] = system: Staphylococcus aureus (MSSA); assay: Expected efficacy of antibiotic agents; conditions: expected efficacy against Staphylococcus aureus (MSSA)
[7] = system: Staphylococcus epidermidis; assay: Expected efficacy of antibiotic agents; conditions: expected efficacy against Staphylococcus epidermidis
Streptococcus agalactiae = assay: Expected efficacy of antibiotic agents; conditions: expected efficacy against Streptococcus agalactiae
Streptococcus pneumoniae = assay: Expected efficacy of antibiotic agents; conditions: expected efficacy against Streptococcus pneumoniae
Streptococcus pyogenes = assay: Expected efficacy of antibiotic agents; conditions: expected efficacy against Streptococcus pyogenes
[8] = system: Viridans group streptococci; assay: Expected efficacy of antibiotic agents; conditions: expected efficacy against Viridans group streptococci
Brucella species = conditions: expected efficacy against Brucella species
Pseudomonas fluorescens = assay: Expected efficacy of antibiotic agents; conditions: expected efficacy against Pseudomonas fluorescens

CO/N=C(\C(=O)N[C@@H]1C(=O)N2C(C(=O)O)=C(CSc3nc(=O)c(=O)[nH]n3C)CS[C@H]12)c1csc(N)n1 [Ceftriaxone, ceftriaxone]
Efficacy (Bacteroides fragilis): yes | Efficacy (Clostridium difficile): no | Efficacy (Clostridium perfringens): yes | Efficacy (Chlamydia pneumoniae): no | Efficacy (Chlamydia psittaci): no | Efficacy (Chlamydia trachomatis): no | Efficacy (Mycoplasma pneumoniae): no | Efficacy (Acinetobacter baumannii): no | Efficacy [1]: no | Efficacy (Acinetobacter lwoffii): no | Efficacy (Bordetella pertussis): no | Efficacy (Campylobacter jejuni): no | Efficacy (Citrobacter diversus): yes | Efficacy (Citrobacter freundii): yes | Efficacy (Enterobacter aerogenes): yes | Efficacy (Enterobacter cloacae): yes | Efficacy (Enterobacter sakazakii): yes | Efficacy (Escherichia coli): yes | Efficacy (Francisella tularensis): no | Efficacy (Haemophilus ducreyi): yes | Efficacy (Haemophilus influenzae): yes | Efficacy [2]: yes | Efficacy [3]: yes | Efficacy (Klebsiella oxytoca): yes | Efficacy (Klebsiella pneumoniae): yes | Efficacy (Legionella pneumophila): no | Efficacy (Moraxella catarrhalis): yes | Efficacy (Morganella morganii): yes | Efficacy (Neisseria gonorrhoeae): yes | Efficacy (Neisseria meningitidis): yes | Efficacy (Proteus mirabilis): yes | Efficacy (Proteus vulgaris): yes | Efficacy (Providencia rettgeri): yes | Efficacy (Providencia stuartii): yes | Efficacy (Pseudomonas aeruginosa): no | Efficacy (Rickettsiae): no | Efficacy (Salmonella typhi): yes | Efficacy (Serratia marcescens): yes | Efficacy (Shigella boydii): yes | Efficacy (Shigella dysenteriae): yes | Efficacy (Shigella flexneri): yes | Efficacy (Shigella sonnei): yes | Efficacy (Vibrio cholerae): no | Efficacy (Yersinia pestis): no | Efficacy (Corynebacterium jeikeium): no | Efficacy [4]: no | Efficacy (Diphtheroids): no | Efficacy (Enterococcus faecalis): no | Efficacy (Enterococcus faecium): no | Efficacy [5]: no | Efficacy (Peptostreptococcus): yes | Efficacy [6]: yes | Efficacy [7]: yes | Efficacy (Streptococcus agalactiae): yes | Efficacy (Streptococcus pneumoniae): yes | Efficacy (Streptococcus pyogenes): yes | Efficacy [8]: yes

Colistimethate
Efficacy (Bacteroides fragilis): no | Efficacy (Clostridium difficile): no | Efficacy (Chlamydia pneumoniae): no | Efficacy (Chlamydia psittaci): no | Efficacy (Chlamydia trachomatis): no | Efficacy (Mycoplasma pneumoniae): no | Efficacy (Bordetella pertussis): no | Efficacy (Brucella species): no | Efficacy (Enterobacter aerogenes): yes | Efficacy (Enterobacter cloacae): yes | Efficacy (Enterobacter sakazakii): yes | Efficacy (Escherichia coli): yes | Efficacy [2]: no | Efficacy [3]: yes | Efficacy (Klebsiella oxytoca): yes | Efficacy (Klebsiella pneumoniae): yes | Efficacy (Legionella pneumophila): no | Efficacy (Moraxella catarrhalis): no | Efficacy (Neisseria gonorrhoeae): no | Efficacy (Neisseria meningitidis): no | Efficacy (Proteus mirabilis): no | Efficacy (Proteus vulgaris): no | Efficacy (Providencia rettgeri): no | Efficacy (Providencia stuartii): no | Efficacy (Pseudomonas aeruginosa): yes | Efficacy (Pseudomonas fluorescens): yes | Efficacy (Serratia marcescens): no | Efficacy (Vibrio cholerae): no | Efficacy (Corynebacterium jeikeium): no | Efficacy [4]: no | Efficacy (Diphtheroids): no | Efficacy (Enterococcus faecalis): no | Efficacy (Enterococcus faecium): no | Efficacy [5]: no | Efficacy (Peptostreptococcus): no | Efficacy [6]: no | Efficacy [7]: no | Efficacy (Streptococcus agalactiae): no | Efficacy (Streptococcus pneumoniae): no | Efficacy (Streptococcus pyogenes): no | Efficacy [8]: no

Reference: patent US20170173002A1, “Compositions and Methods for Treating an Infection” (CMPD LICENSING, LLC, priority 2015, published 2017)
